Read-outs that look alike come from different tables or passages of the source.
Tests used:
[1] = target: T1, hM1 mAChR (Homo sapiens, UniProt P11229); assay: IP1 accumulation assay (ACh concentration-response curves in absence or presence of modulator); type: cell-based; conditions: for activation at 1 µM: read-out: Δbaseline [1 μM]: change in basal response in presence of M1 PAM compared to control curve; for activation at 10 µM: read-out: Δbaseline [10 μM]: change in basal response in presence of M1 PAM compared to control curve; for αβ (functional cooperativity with ACh) / τB (intrinsic efficacy of the modulator) / log τB (logarithm of intrinsic efficacy of the modulator) / log αβ (logarithm of functional cooperativity between ACh and modulator): IP1 accumulation; for αβ (functional cooperativity with ACh) / τB (intrinsic efficacy of the modulator): antilog, in parentheses; for log τB (logarithm of intrinsic efficacy of the modulator) / log αβ (logarithm of functional cooperativity between ACh and modulator): operational model; for log αβ (logarithm of functional cooperativity between ACh and modulator): pKB constrained to binding value
T1 construct: expressed in transfected cells
T1 sequence (P11229 1-460): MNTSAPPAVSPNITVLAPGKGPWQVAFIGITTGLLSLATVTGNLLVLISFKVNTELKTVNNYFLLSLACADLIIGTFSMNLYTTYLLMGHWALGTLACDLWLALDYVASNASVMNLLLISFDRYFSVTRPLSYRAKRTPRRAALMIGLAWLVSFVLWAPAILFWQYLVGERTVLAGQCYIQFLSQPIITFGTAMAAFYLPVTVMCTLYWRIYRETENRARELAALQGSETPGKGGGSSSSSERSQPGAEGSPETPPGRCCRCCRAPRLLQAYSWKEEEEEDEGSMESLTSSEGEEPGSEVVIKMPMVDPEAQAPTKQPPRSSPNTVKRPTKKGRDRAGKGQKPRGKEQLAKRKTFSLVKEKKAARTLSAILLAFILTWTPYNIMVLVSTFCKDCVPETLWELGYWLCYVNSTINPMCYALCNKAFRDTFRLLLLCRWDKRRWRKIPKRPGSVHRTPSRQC
Protocol: Functional activity of the synthesized analogues as racemic mixtures was investigated in IP1 accumulation assays at the M1 mAChR, as described previously.[13–14] ACh concentration-response curves were generated in the absence or presence of a 1 and 10 μM concentration of each modulator. The change in baseline activity (Δbaseline) is an approximate measure of direct allosteric agonism (τB), whereas the pEC50 shift (ΔpEC50) is an approximate measure of functional cooperativity (αβ) of each modulator with ACh in the investigated signalling pathway. We aimed to identify modulators with various degrees of allosteric agonism and modulatory effects on ACh response, as these could generate distinct in vivo outcomes for applications in different conditions in the CNS or gastrointestinal (GI) tract.[[10g,h,j]]
(§1) The compounds were then fully characterised in two functional assays (Figure 2C and D); the Gq-coupled IP1 accumulation assay (Figure S2), which was used for the initial screening of the compounds, and a β-arrestin 2 recruitment assay (Figure S3). The operational efficacy (τB) values for the modulators and their functional cooperativity estimates with ACh (logαβACh) at both signalling pathways were estimated by applying an operational model of allosterism and agonism to the data [Eq. (3)],[16] and are listed in Table 5.
FlpIn CHO cells stably expressing the hM1 mAChR were seeded at 25000 per well of 96-well transparent cell culture plates and grown overnight. […] Cells were then stimulated with increasing concentration of ACh in the absence or presence of increasing concentrations of each modulator for 1 h at 37°C. […] Seven μL of cell lysates were transferred into wells of 384-well Proxiplates (Perki-nElmer Life Sciences), and IP1 levels were measured using the IP-One assay kit (Cisbio, Codolet, France). […] The signal was expressed as the HTRF ratio, interpolated from the standard curve, and normalized to the maximum response to ACh.
Changes in both baseline and pEC50 were quantified by subtracting the estimates at each M1 PAM concentrations with the control values. Propagation of the error on baseline and potency values were determined as follows [Eq. (1)]: σΔ=σPAM2+σcont.2 where σΔ is the standard error of the mean (SEM) for the change in value, and σPAM and σcont. are the SEM from the three-parameter logistic equation analysis in presence or absence of M1 PAM, respectively.
(§2) Functional interaction studies between ACh and allosteric modulators in IP1 and β-arrestin 2 recruitment assays were analysed according to a three-parameter logistic equation or the following operational model of allosterism and agonism [Eq. (3)].[16] E=Basal+(Em−Basal)([A](KB+αβ[B])+τB[B]EC50)^n/EC50n(KB+[B])^n+([A](KB+αβ[B])+τB[B]EC50)^n where Em is the maximal possible system response, and Basal is the response in the absence of agonist. [A] and [B] are concentrations of orthosteric and allosteric ligands, respectively. KB is the equilibrium dissociation constant of allosteric ligand, and EC50 is the concentration of orthosteric agonist required to achieve half maximal response. α and β represent the magnitude of the allosteric effects on orthosteric ligand affinity and efficacy, respectively; τB is the efficacy of allosteric ligand, and n is the slope factor of the transducer function that links occupancy to response.

[2] = target: T1, hM1 mAChR; assay: Whole-cell [3H]NMS equilibrium competition radioligand binding; conditions: [3H]NMS binding; for α (binding cooperativity with ACh): antilog
Protocol: To determine the affinity (pKB) of the allosteric modulators for the allosteric site, and their binding cooperativity with ACh (log αACh) at the M1 mAChR, whole cell equilibrium competition binding studies were performed, using [^3H]NMS to label the orthosteric site.
FlpIn Chinese hamster ovary (CHO) cells stably expressing the hM1 mAChR were grown in Dulbecco’s modified Eagle’s medium (DMEM) (Invitrogen, Carlsbad, CA) supplemented with 5% foetal bovine serum (FBS) (Thermo-Trace, Melbourne, Australia) and 300 μg/mL G418 (Invitrogen, Carlsbad, CA). The cells were plated at 50,000 cells per well of 96-well white clear bottom plates (Greiner Bio-one, Kremsmünster, Austria), and were grown overnight. The following day, cells were washed twice with Phosphate Buffered Saline (PBS), and incubated with increasing concentrations of ACh (Sigma) in the absence or presence of increasing concentrations of each modulator and 0.2 nM [^3H]NMS (PerkinElmer Life Sciences) in binding buffer (20 mM HEPES, 100 mM NaCl, 10 mM MgCl2, pH 7.4) for 5 h at room temperature. Nonspecific binding was determined using atropine at the final concentration of 10 μM. The assays were terminated by rapid removal of the unbound radioligand followed by two washes with 100 μL/well ice-cold 0.9% NaCl buffer. Radioactivity was determined by addition of 100 μL/well Ultima gold (PerkinElmer Life Sciences) and counting in a MicroBeta plate reader (PerkinElmer Life Sciences).
Binding interaction studies with allosteric ligands were fitted to the following allosteric ternary complex model [Eq. (2)][15] Y=Bmax|A|/[Λ]+[KAKB/α^′[B]+KB][1+[I]/K1+[B]/KB+α[I][B]/KIKB] where Bmax is the total number of receptors, [A], [B] and [I] denote the concentrations of radioligand, allosteric modulator, and orthosteric ligand, respectively; KA, KB and KI are their respective equilibrium dissociation constants. α’ and α are the affinity cooperativity factors between the allosteric ligand and radioligand or the allosteric modulator and ACh, respectively. Values of α or α’ > 1 denote positive cooperativity, values < 1 but > 0 denote negative cooperativity, and a value of 1 indicates neutral coopera-tivity.

[3] = target: T2, M1 mAChR (Homo sapiens, UniProt P11229); assay: β-arrestin 2 recruitment assay (BRET); type: cell-based; conditions: for αβ (functional cooperativity with ACh) / τB (intrinsic efficacy of the modulator): antilog, in parentheses; for log τB (logarithm of intrinsic efficacy of the modulator) / log αβ (logarithm of functional cooperativity between ACh and modulator): operational model; for log αβ (logarithm of functional cooperativity between ACh and modulator): pKB constrained to binding value
T2 construct: expressed in transfected cells; host or cells: parental FlpIn CHO cells (transient, PEI)
T2 sequence (P11229 1-460): T1 sequence (P11229 1-460)
Excerpt: as §1
Parental FlpIn CHO cells were plated at 30000 cells/well of 96-well white Culture plates (Perkin Elmer Life Sciences) and transiently transfected with 10 ng/well of M1 Renilla luciferase (Rluc)-8 and 40 ng/well of YFP-β-arrestin 2 using linear polyethyleneimine (PEI/DNA ratio 6:1) diluted in 150 mM NaCl. DNA:PEI complexes were formed by 15 min incubation at room temperature then added to the cells and incubated at 37°C for 24 h prior to use. Cells were then washed and equilibrated in Hanks’ balanced salt solution for 1 h at 37°C. Coelenterazine h at a final concentration of 5 μM was added to each well, followed by addition of increasing concentrations of ACh in the absence or presence of increasing concentrations of each modulator. Lumines-cence and fluorescence signals were measured 5 min after agonist stimulation using the LUMIstar Omega plate reader (BMG LabTech, Offenburg, Germany). […] Data were then normalized to the maximum response to ACh.
as §2

[4] = 1 μM modulator, FlpIn CHO hM1 cells, mean ± SEM, 3 experiments
[5] = 10 μM modulator, FlpIn CHO hM1 cells, mean ± SEM, 3 experiments
[6] = allosteric ternary complex model, mean ± SEM, read-out: pKB (negative logarithm of the allosteric modulator equilibrium dissociation constant) (converted)

Cn1cc(-c2ccc(COc3ccsc3-c3ccn(C4CCCCC4O)c(=O)c3)cc2)cn1 (centres unmarked) [Compound 7h, 1-(2-Hydroxycyclohexyl)-4-(3-((4-(1-methyl-1H-pyrazol-4-yl)benzyl)oxy)thiophen-2-yl)pyridin-2(1H)-one]
ΔpEC50 [1 μM]: change in ACh pEC50 in presence of M1 PAM compared to control curve [1, 4]: 1.88±0.37 | activation at 1 µM [1, 4]: 70.8 ± 4% | ΔpEC50 [10 μM]: change in ACh pEC50 in presence of M1 PAM compared to control curve [1, 5]: 2.28±0.77 | activation at 10 µM [1, 5]: 90.3 ± 3.1% | αβ (functional cooperativity with ACh) [1]: 562 | τB (intrinsic efficacy of the modulator) [1]: 6 | log τB (logarithm of intrinsic efficacy of the modulator) [1]: 0.78±0.04 | log αβ (logarithm of functional cooperativity between ACh and modulator) [1]: 2.75±0.11 | Kb [2, 6]: 6.03 µM | α (binding cooperativity with ACh) ([2]; in parentheses): 380 | log αACh (logarithm of binding cooperativity between ACh and modulator) ([2]; mean ± SEM): 2.58±0.18 | αβ (functional cooperativity with ACh) [3]: 955 | τB (intrinsic efficacy of the modulator) [3]: 1 | log τB (logarithm of intrinsic efficacy of the modulator) [3]: 0.07±0.05 | log αβ (logarithm of functional cooperativity between ACh and modulator) [3]: 2.98±0.10

COc1ccc(Cn2cc(C(=O)O)c(=O)c3ccccc32)cc1 [BQCA, reference compound]
αβ (functional cooperativity with ACh) [1]: 389 | τB (intrinsic efficacy of the modulator) [1]: 6 | log τB (logarithm of intrinsic efficacy of the modulator) [1]: 0.76±0.03 | log αβ (logarithm of functional cooperativity between ACh and modulator) [1]: 2.59±0.07 | α (binding cooperativity with ACh) ([2]; in parentheses): 245 | log αACh (logarithm of binding cooperativity between ACh and modulator) ([2]; mean ± SEM): 2.39±0.22 | αβ (functional cooperativity with ACh) [3]: 89 | τB (intrinsic efficacy of the modulator) [3]: 1 | log τB (logarithm of intrinsic efficacy of the modulator) [3]: –0.03±0.10 | log αβ (logarithm of functional cooperativity between ACh and modulator) [3]: 1.95±0.19

Cn1cc(-c2ccc(COc3ncccc3-c3cc(=O)n(C4CCCCC4O)cn3)cc2)cn1 (centres unmarked) [Compound 26a, 3-(2-Hydroxycyclohexyl)-6-(2-((4-(1-methyl-1H-pyrazol-4-yl)benzyl)oxy)pyridin-3-yl)pyrimidin-4(3H)-one]
activation at 1 µM [1, 4]: 100% | activation at 10 µM [1, 5]: 100% | τB (intrinsic efficacy of the modulator) [1]: 3 | log τB (logarithm of intrinsic efficacy of the modulator) [1]: 0.54±0.02 | log αβ (logarithm of functional cooperativity between ACh and modulator) [1]: 1.89±0.07 | Kb [2, 6]: 3.31 µM | Kb ([2]; antilog of pKB, in parentheses, read-out: KB (converted)): 3 µM | α (binding cooperativity with ACh) ([2]; in parentheses): 120 | log αACh (logarithm of binding cooperativity between ACh and modulator) ([2]; mean ± SEM): 2.08±0.13 | αβ (functional cooperativity with ACh) [3]: 95 | τB (intrinsic efficacy of the modulator) [3]: 2 | log τB (logarithm of intrinsic efficacy of the modulator) [3]: 0.28±0.04 | log αβ (logarithm of functional cooperativity between ACh and modulator) [3]: 1.98±0.10

— paper PMC7616174, “Development of Novel 4-Arylpyridin-2-one and 6-Arylpyrimidin-4-one Positive Allosteric Modulators of the M1 Muscarinic Acetylcholine Receptor” (ChemMedChem, 2020)
